Results taken from publication PMC7281419, “New Conjugates of Polyhydroxysteroids with Long-Chain Fatty Acids from the Deep-Water Far Eastern Starfish Ceramaster patagonicus and Their Anticancer Activity” (Marine Drugs, 2020).
Like-named read-outs stand apart in the source and are kept apart here.

What was measured:
[1] = tested on: human liver carcinoma HepG2 cells; set-up: method as in PMID 20523000; conditions: in vitro; cited from earlier work
[2] = tested on: herpes simplex virus type 1 (HSV-1); set-up: method as in PMID 20523000; conditions: in vitro; cited from earlier work
[3] = MTS cell viability assay (cytotoxic / cytostatic activity); format: cell-based, mouse; conditions: mouse, JB6 Cl41 cells (normal epidermal), 100 µM, 24 h incubation, read-out: suppression of cell viability
Description: (§1) At the first stage of biological activity evaluation, the cytotoxicity of compounds 1–4 against mouse normal epidermal JB6 Cl41 cells, human breast cancer MDA-MB-231 cells, and colorectal carcinoma HCT 116 cells was determined by MTS assay, which is based on the cleavage of (3-(4,5-dimethylthiazol-2-yl)-5-(3-carboxymethoxyphenyl)-2-(4-sulfophenyl)-2H-tetrazolium) (MTS reagent) into a formazan product soluble in tissue culture medium.
(§2) That is why the cytostatic activity of compounds 1–4 was determined against JB6 Cl41, MDA-MB-231, and HCT 116 cell lines for 24, 48, and 72 h. […] The cytostatic effect of 2 was more prominent in colorectal carcinoma HCT 116 cells.
(§3) Figure 3 The cytostatic activity of compounds 1–4 against normal epidermal JB6 Cl41 cells, breast cancer MDA-MB-231 cells, and colorectal carcinoma HCT 116 cells. (A) JB6 Cl41, (B) MDA-MB-231, or (C) HCT 116 cells were treated with compounds 1–4 at concentrations of 1–100 µM for 24, 48, and 72 h. Cell viability was estimated using the MTS assay. Data are represented as the mean ± SD as determined from triplicate experiments.
(§4) To determine the cytotoxicity of compounds 1–4, JB6 Cl41, MDA-MB-231, and HCT 116 cells (1.0 × 10^4) were seeded in 200 µL of complete MEM/5% FBS, DMEM/10% FBS, and McCoy’s 5A/10% FBS medium, respectively, and incubated for 24 h at 37 °C in 5% CO2 incubator. The attached cells were incubated with fresh medium containing various concentrations of 1–4 (0–100 µM) or equivalent volume of DMSO (control) for additional 24 h. Subsequently, the cells were incubated with 15 µL MTS reagent for 3 h, and the absorbance of each well was measured at 490/630 nm using Power Wave XS microplate reader (BioTek, Winooski, VT, USA). All experimental conditions were assessed in triplicate.
(§5) To determine the effect of compounds 1–4 on cell proliferation, the tested cell lines (8 × 10^3 cells/200 µL) were treated with tested compounds at concentrations of 1, 10, 50, and 100 µM or equivalent volume of DMSO (control) and incubated for additional 24, 48, and 72 h at 37 °C in 5% CO2. MTS reagent (20 µL) was added to each well, and the cells were incubated for additional 3 h in 5% CO2 incubator. Absorbance was measured at 490/630 nm by microplate reader. All experimental conditions were assessed in triplicate.

[4] = tested on: JB6 Cl41 cells; assay: as above; format: cell-based, mouse; conditions: Mus musculus, 72 h incubation, read-out: concentration that caused 50% inhibition of growth (IC50)
Description: as §1, §2, §3, §4, §5

[5] = tested on: MDA-MB-231 cells; assay: Wound healing (cell migration) assay; format: cell-based, human; conditions: 20 µM, 48 h
Excerpt: (§6) The metastasis process is proven to be the leading cause of cancer-related death. Metastasis is a multistep process that includes migration and invasion of cancer cells, hallmarks of malignancy. Therefore, we investigated the ability of compounds 1–4 to inhibit the migration of breast cancer MDA-MB-231 cells and colorectal carcinoma HCT 116 cells with high metastatic potential. […] Compounds 1, 3, and 4 prevented HCT 116 cell migration by 36%, 30%, and 24%, respectively (Figure 5). […]
(§7) Figure 5 The effect of compounds 1–4 on migration of human cancer cells. MDA-MB-231 (A,B) and HCT 116 (C,D) cells migration distance was estimated by measuring the width of the wound and expressed as a percentage of each control for the mean of wound closure area. All experiments were repeated at least three times in each group (n = 18 for control and each compound, n—quantity of photos). The magnification of representative photos is ×10. Results are expressed as the mean ± standard deviation (SD). The asterisks (* p < 0.05, ** p < 0.01, *** p < 0.001) indicate a significant decrease in migration of cells treated with compounds compared with the control.
(§8) MDA-MB-231 and HCT 116 cells (3 × 10^5 cells/mL) were seeded into six-well plates and grown to 80% confluence for 24 h. After removing the culture medium, the cells’ monolayer was scraped with a 200 µL sterile pipette tip to create a straight scratch. Then, MDA-MB-231 and HCT 116 cells were treated with equivalent volume of DMSO (control) or 1–4 at concentration of 20 µM and incubated for 48 h. All experiments were conducted in triplicate for each group. For the image analysis, cell migration into the wound area was photographed at the stages of 0 and 48 h using a Motic AE 20 microscope and ImageJ software. The cell migration distance was estimated by measuring the width of the wound and expressed as a percentage of each control for the mean wound closure area.

[6] = tested on: HCT 116 cells; assay: Wound healing (cell migration) assay; format: cell-based, human; conditions: 20 µM, 48 h
Excerpt: as §6, §7, §8

[7] = tested on: MDA-MB-231 cells; assay: Soft agar colony formation assay; format: cell-based; conditions: Homo sapiens, 336 h, 14 days
Description: (§9) The formation of colonies is one of the most stringent characteristics for malignant transformation in cells. In the present study the soft agar assay was used to investigate the effect of compounds 1–4 on capability of cancer cells to form colonies.
(§10) Figure 4 The effect of compounds 1–4 on colony formation in human cancer cells. MDA-MB-231 (A) or HCT 116 cells (B) (2.4 × 10^4) were treated with or without investigated compounds (20 µM) and applied onto 0.3% Basal Medium Eagle (BME) agar containing 10% FBS, 2 mM L-glutamine, and 25 µg/mL gentamicin. After 14 days of incubation, the number of colonies was evaluated under a microscope with the aid of the ImageJ software program. Results are expressed as the mean ± standard deviation (SD). The asterisks (** p < 0.01, *** p < 0.001) indicate a significant decrease in colony number of cancer cells treated by compounds compared with control.
(§11) To estimate the effects of 1–4 on colony formation (phenotype expression), MDA-MB-231 and HCT 116 cells (2.4 × 10^4 cells/200 µL) were treated equivalent volume of DMSO (control) or with compounds 1–4 (20 µM) in 1 mL of 0.3% Basal Medium Eagle (BME) agar containing 10% FBS, 2 mM L-glutamine, and 25 µg/mL gentamicin. The cultures were maintained in a 37 °C, 5% CO2 incubator for 14 days, and the cell colonies were scored using a Motic AE 20 microscope (XiangAn, Xiamen, China) and ImageJ software bundled with 64-bit Java 1.8.0_112 (NIH, Bethesda, MD, USA).

[8] = tested on: HCT 116 cells; assay: Soft agar colony formation assay; format: cell-based; conditions: Homo sapiens, 336 h, 14 days
Description: as §9, §10, §11

[9] = tested on: MDA-MB-231 cells; assay: MTS cell viability assay (cytotoxic / cytostatic activity); format: cell-based, human; conditions: for IC50: Homo sapiens, 72 h incubation, read-out: concentration that caused 50% inhibition of growth (IC50)
Description: as §1, §2, §3, §4, §5

[10] = tested on: HCT 116 cells; assay: as above; format: cell-based, human; conditions: for IC50: Homo sapiens, 72 h incubation, read-out: concentration that caused 50% inhibition of growth (IC50)
Description: as §1, §2, §3, §4, §5

[11] = as above; format: cell-based, human; conditions: human, 100 µM, 24 h incubation, read-out: suppression of cell viability
Description: as §1, §2, §3, §4, §5

[12] = tested on: ovarian cancer SK-OV-3; set-up: method as in PMID 15104487; conditions: SK-OV-3 cells; cited from earlier work
[13] = tested on: CNS cancer XF498; set-up: method as in PMID 15104487; conditions: cited from earlier work
[14] = tested on: colon cancer HCT15; set-up: method as in PMID 15104487; conditions: cited from earlier work
[15] = tested on: melanoma SK-MEL-2; set-up: method as in PMID 15104487; conditions: SK-MEL-2 cells; cited from earlier work
[16] = tested on: human lung cancer A549; set-up: method as in PMID 15104487; conditions: cited from earlier work
[17] = HCT 116 cells (colorectal carcinoma)
[18] = MDA-MB-231 cells (breast cancer)

| Structure (SMILES) | inhibitory activity against HepG2 cells [1] | inhibitory activity against HSV-1 [2] | cytotoxicity at 24 h, 100 µM [3] [%] | IC50 [4] [µM] | prevention of cell migration compared to control [5] [%] | prevention of cell migration [6] [%] | inhibition at 20 µM [7] [%] | inhibition at 20 µM [8] [%] | IC50 [9] [µM] | IC50 [10] [µM] | cytotoxicity at 24 h, 100 µM [11, 17] [%] | cytotoxicity at 24 h, 100 µM [11, 18] [%] | inhibitory activity against cell migration (in words) [5] | toxicity against cell line ([9]; three days of treatment) | toxicity against cell line ([10]; three days of treatment) | effective dose that inhibited viability of 50% cells (ED50) [12] [µg/mL] | effective dose that inhibited viability of 50% cells (ED50) [13] [µg/mL] | effective dose that inhibited viability of 50% cells (ED50) [14] [µg/mL] | effective dose that inhibited viability of 50% cells (ED50) [15] [µg/mL] | effective dose that inhibited viability of 50% cells (ED50) [16] [µg/mL] |
| --- | --- | --- | --- | --- | --- | --- | --- | --- | --- | --- | --- | --- | --- | --- | --- | --- | --- | --- | --- | --- |
| CCCCC/C=C\CCCCCCCCCCCCC(=O)OC[C@@H](C)CCC[C@@H](C)[C@H]1[C@@H](O)[C@H](O)[C@@H]2[C@]1(C)CC[C@@H]1[C@@]3(C)CC[C@H](O)C[C@@H]3[C@@H](O)[C@@H](O)[C@]12O [(25S)-5α-cholestane-3β,6α,7α,8,15α,16β-hexaol-26-yl 14′Z-eicosenoate] | did not possess inhibitory activity | did not possess inhibitory activity |  |  |  |  |  |  |  |  |  |  |  |  |  |  |  |  |  |  |
| CCCCCCC=CCCCCC=CCCCC(=O)OCC(C)CCCC(C)C1C(O)C(O)C2C3CC(O)C4CC(O)CCC4(C)C3CCC12C [Compound 1, (25S)-5α-cholestane-3β,6β,15α,16β-tetraol-26-yl 5′Z,11′Z-octadecadienoate] |  |  | < 15 | 81 | 42 | 36 | 17 | 20 | 74 | 73 | < 15 | < 15 |  |  |  |  |  |  |  |  |
| CCCCCCC=CCCCCCCCCCC(=O)OCC(C)CCCC(C)C1C(O)C(O)C2C3CC(O)C4CC(O)CCC4(C)C3CCC12C [Compound 2, (25S)-5α-cholestane-3β,6β,15α,16β-tetraol-26-yl 11′Z-octadecenoate] |  |  | < 15 | 40 | 50 | 73 | 26 | 27 | 33 | 31 | < 15 | < 15 |  |  |  |  |  |  |  |  |
| CCCCCCCCC=CCCCCC=CCCCC(=O)OCC(C)CCCC(C)C1C(O)C(O)C2C3CC(O)C4CC(O)CCC4(C)C3CCC12C [Compound 3, (25S)-5α-cholestane-3β,6β,15α,16β-tetraol-26-yl 5′Z,11′Z-eicosadienoate] |  |  | < 15 | 79 |  | 30 | 15 | 18 | 73 | 71 | < 15 | < 15 | moderate inhibitory activity |  |  |  |  |  |  |  |
| CCCCCCCCCCCCC=CCCCCCC(=O)OCC(C)CCCC(C)C1C(O)C(O)C2C3CC(O)C4CC(O)CCC4(C)C3CCC12C [Compound 4, (25S)-5α-cholestane-3β,6β,15α,16β-tetraol-26-yl 7′Z-eicosenoate] |  |  | < 15 |  |  | 24 | 10 | 16 |  |  | < 15 | < 15 | moderate inhibitory activity | non-toxic | non-toxic |  |  |  |  |  |
| CC(C)[C@H](/C=C/[C@@H](C)[C@H]1C[C@@H](O)[C@H]2[C@@H]3C[C@H](O)[C@H]4C[C@@H](O)CC[C@]4(C)[C@H]3CC[C@@]21C)CO [certonardosterol D2] |  |  |  |  |  |  |  |  |  |  |  |  |  |  |  | 0.08 | 0.07 | 0.01 | 0.09 | 0.15 |
